Measured values from patent publication US4555572A, “Pyrazolo[3,4,5-kl]acridine compositions and methods for their production and use” (Warner-Lambert Company, priority 1984, dated 1985).
Structures can show the parent of a compound that is named as a salt. Where two headings read alike, the source gives them in different places.

Columns and labels:
[1] = test system: lymphocytic leukemia P388; test: in vivo lymphocytic leukemia P388 test; parameters: species or system CD2 F1 mice; conditions: Mus musculus, P388, ip, 120 h
Outline: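 CD2 F1 mice (6–7 per group) inoculated i.p. with P388 ascitic cells; compound dosed i.p. once daily for 5 consecutive days after inoculation. Survival followed 30 days; efficacy as treated/control survival time ×100 (≥125 criterion); "toxic" if all animals died within 4 days of first dose.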

HCT-8 cells = test: in vitro proliferating human colon adenocarcinoma (HCA) cell screen, HCT-8; assay type: cell-based
Outline: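 HCT-8 colon adenocarcinoma cells seeded in RPMI 1640 + 10% FCS, grown 48 h, then exposed to compounds for 60-65 h at 37 °C, 5% CO2. Nuclei counted by Coulter counter after lysis; ID50 is the molar concentration giving 50% growth inhibition.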

Streptococcus faecalis = test: in vitro antibacterial/antifungal (ABF) agar-disk diffusion assay; assay type: cell-based; conditions: Enterococcus faecalis, read-out: ABF zone diameter S. faecalis; for zone of inhibition at 500 µg/mL: dose .5 mg/ml
Protocol: (§1) (b) Another test protocol is the in vitro antibacterial/antifungal (ABF) test. Compounds are tested for antimicrobial activity in an agar-disk diffusion assay, a standard microbiological technique for testing antibiotics. After incubation of each culture with a test compound, a zone of inhibition is determined. The zone diameter (mm) of active compounds ranges from a minimum of 14 mm to as high as 60 mm, with a greater diameter reflecting higher activity. For convenience, values are reported for (Alcaligenes viscolactis, Sarcina lutea, Branhamella catarrhalis, Bacillus subtilis, and Streptococcus faecalis.

Alcaligenes viscolactis [2] = test: as above; assay type: cell-based; conditions: dose .1 mg/ml, read-out: ABF zone diameter A. viscol.
Protocol: as §1

Bacillus subtilis = test: as above; assay type: cell-based; conditions: for zone of inhibition at 100 µg/mL: dose .1 mg/ml
Protocol: as §1

Branhamella catarrhalis [3] = test: as above; assay type: cell-based; conditions: Moraxella catarrhalis, read-out: ABF zone diameter B. catarrh.; for zone of inhibition at 100 µg/mL: dose .1 mg/ml
Protocol: as §1

Sarcina lutea = test: as above; assay type: cell-based; conditions: Micrococcus luteus, read-out: ABF zone diameter S. lutea; for zone of inhibition at 500 µg/mL: dose .5 mg/ml
Protocol: as §1

L1210 cells = test: PDC test, L1210 cell growth; assay type: cell-based, murine; conditions: Mus musculus, read-out: PDC ID50
Protocol: (c) Another test protocol is the PDC test. L1210 cells, a murine leukemia cell line, were grown in RPMI 1640 supplemented with 10% fetal bovine serum and genamicin (50 μg/ml). Drug dilutions were prepared in the appropriate solvent and 20 μl of each dilution were added to 24-well Linbro tissue culture plates followed by the addition of 2.0 ml of cell suspension containing 3×10^4 cells per ml. Solvent and medium controls were included in each test. After incubation at 37° C. for three days in 5% CO2 in air, the contents of each well were removed and the cells counted in a ZBI Coulter counter. Per cent growth was calculated relative to the controls and the levels of drug activity were expressed as ID50 in terms of molarity (M).

Alcaligenes viscolactis [4] = test: in vitro antibacterial (ABMF) microdilution susceptibility test; assay type: cell-based; conditions: read-out: ABMF Test M.I.C. A. visc.
Outline: (§2)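 Standard microdilution susceptibility in Mueller-Hinton broth: inoculated wells contain test compound at 1000, 333, 111, 37, 12, 4, 1.4 and 0.46 μg/mL.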

Streptococcus pneumoniae = test: as above; assay type: cell-based; conditions: read-out: ABMF Test M.I.C. S. pneu.
Outline: as §2

Escherichia coli = test: as above; assay type: cell-based; conditions: read-out: ABMF Test M.I.C. E. coli
Outline: as §2

Branhamella catarrhalis [5] = test: as above; assay type: cell-based; conditions: Moraxella catarrhalis, read-out: ABMF Test M.I.C. B. cata.
Outline: as §2

Bacillus cereus = test: as above; assay type: cell-based; conditions: read-out: ABMF Test M.I.C. B. cere.
Outline: as §2

[6] = 12.5 mg/kg, intraperitoneally once daily for five days, read-out: P388 in vivo T/C × 100
[7] = 25 mg/kg, intraperitoneally once daily for five days, read-out: P388 in vivo T/C × 100
[8] = Bacillus subtilis, read-out: ABF zone diameter B. subtil.
[9] = 3.12 mg/kg, intraperitoneally once daily for five days, read-out: P388 in vivo T/C × 100
[10] = 6.25 mg/kg, intraperitoneally once daily for five days, read-out: P388 in vivo T/C × 100
[11] = 50 mg/kg, intraperitoneally once daily for five days, read-out: P388 in vivo T/C × 100
[12] = HCT-8 cells, 60 to 65 hours, ED50, read-out: HCA ED50 Avg.
[13] = Mueller-Hinton broth, 37° C., 16-24 hours
[14] = read-out: P388 in vivo T/C × 100, 6.25 mg/kg, intraperitoneally once daily for five days
[15] = read-out: P388 in vivo T/C × 100, 12.5 mg/kg, intraperitoneally once daily for five days
[16] = read-out: P388 in vivo T/C × 100, 25 mg/kg, intraperitoneally once daily for five days
[17] = HCT-8, read-out: HCA in vitro ID50 avg.

Row | SMILES | response vs control in vivo at 12.5 mg/kg [1, 6] | response vs control in vivo at 25 mg/kg [1, 7] | zone of inhibition at 500 µg/mL (Streptococcus faecalis) | zone of inhibition at 100 µg/mL (Alcaligenes viscolactis [2]) | zone of inhibition at 100 µg/mL (Bacillus subtilis; [8]) | zone of inhibition at 100 µg/mL (Branhamella catarrhalis [3]) | response vs control in vivo at 6.25 mg/kg [1, 10] | response vs control in vivo at 50 mg/kg [1, 11] | response vs control in vivo at 6.25 mg/kg [1, 14] | response vs control in vivo at 12.5 mg/kg [1, 15] | IC50 (L1210 cells; L1210, 72 h) | MIC (Alcaligenes viscolactis [4]) | MIC (Streptococcus pneumoniae) | MIC (Escherichia coli) | MIC (Branhamella catarrhalis [5]) | MIC (Bacillus cereus) | further results
1 | CCN(CC)CCn1nc2c3c(c([N+](=O)[O-])ccc31)N(C)c1ccccc1-2 [Example 2, N,N-Diethyl-6-methyl-5-nitropyrazolo[3,4,5-kl]acridine-2(6H)-ethanamine, methanesulfonate] | 126% | 184% | 16 mm | 20 mm | 18 mm | 17 mm | – | – | – | – | – | – | – | – | – | – | IC50 (HCT-8 cells; HCT-8 cells, 60 to 65 hours, molar concentration for 50% inhibition of growth, read-out: HCA in vitro ID50 avg.): 1000 nM
2 | O=[N+]([O-])c1ccc2c3c(nn2CCNCCO)-c2ccccc2Nc13 [Example 3, 2-[[2-(5-Nitropyrazolo[3,4,5-kl[acridin-2(6H)-yl)ethyl]amino]ethanol, monohydrochloride] | 158% | 185% | 15 mm | 21 mm | 18 mm | – | 132% | – | – | – | – | – | – | – | – | – | response vs control in vivo at 3.12 mg/kg [1, 9]: 122%; zone of inhibition at 500 µg/mL (Sarcina lutea): 14 mm; zone of inhibition at 500 µg/mL (Branhamella catarrhalis [3]; dose .5 mg/ml): 25 mm
3 | CN1c2ccccc2-c2nn(CCNCCO)c3ccc([N+](=O)[O-])c1c23 [Example 4, 2-[[2-[6-Methyl-5-nitropyrazolo[3,4,5-kl-acridin-2-(6H)-yl]ethyl]amino]ethanol, methanesulfonate] | – | 120% | 18 mm | 19 mm | 20 mm | 16 mm | – | 180% | – | – | – | – | – | – | – | – | zone of inhibition at 500 µg/mL (Sarcina lutea): 19 mm
4 | COc1ccc2c(c1)-c1nn(CCNCCO)c3ccc([N+](=O)[O-])c(c13)N2 [Example 7, 2-[[2-(9-Methoxy-5-nitropyrazolo[3,4,5-kl]-acridin-2(6H)yl)ethyl]aminoethanol, monohydrochloride] | 138% | 149% | – | – | – | 14 mm | 138% | 163% | – | – | – | – | – | – | – | – | zone of inhibition at 1000 µg/mL (Streptococcus faecalis; dose 1 mg/ml): 14 mm; zone of inhibition at 500 µg/mL (Bacillus subtilis; Bacillus subtilis, dose .5 mg/ml, read-out: ABF zone diameter B. subtil.): 18 mm; zone of inhibition at 1000 µg/mL (Sarcina lutea; dose 1 mg/ml): 14 mm
5 | CCN(CC)CCn1nc2ccc([N+](=O)[O-])c3c2c1-c1cc(OC)ccc1N3.CS(=O)(=O)O [Example 9, N,N-Diethyl-9-methoxy-5-nitropyrazolo[3,4,5-kl]acridine-1(6H)-ethanamine, monomethanesulfonate] | 120% | 135% | 18 mm | – | – | 16 mm | – | 167% | – | – | – | – | – | – | – | – | ABF zone diameter B. subtil. (Bacillus subtilis; dose not given): 15 mm; zone of inhibition at 100 µg/mL (Sarcina lutea; dose .1 mg/ml): 14 mm
6 | CCOc1ccc2c(c1)-c1nn(CCN(C)C)c3ccc([N+](=O)[O-])c(c13)N2 [Example 37, 9-Ethoxy-N,N-dimethyl-5-nitropyrazolo[3,4,5-kl]acridine-2(6H)ethanamine, methanesulfonate (4:5)] | 234% | – | – | – | – | – | 191% | – | – | – | – | – | – | – | – | – | response vs control in vivo at 3.12 mg/kg [1, 9]: 150%; IC50 (L1210 cells; 72 h, L1210 cells, three days): 270 nM; IC50 (HCT-8 cells; [12]): 25 nM; MIC (Alcaligenes viscolactis [4]; [13]): < 0.46 µg/mL; MIC (Streptococcus pneumoniae; [13]): < 0.46 µg/mL; MIC (Escherichia coli; [13]): < 0.46 µg/mL; MIC (Branhamella catarrhalis [5]; [13]): 1.4 µg/mL; MIC (Bacillus cereus; [13]): 4.1 µg/mL
7 | CCOc1ccc2c(c1)-c1nn(CCNCCO)c3ccc([N+](=O)[O-])c(c13)N2 [Example 40, 2-[[2-(9-Ethoxy-5-nitropyrazolo[3,4,5-kl]acridin-2(6H)-yl)ethyl]amino]ethanol, monohydrochloride, hydrate (4:1)] | 156% | 169% | – | – | – | – | 134% | 195% | – | – | – | – | – | – | – | – | IC50 (L1210 cells; 72 h, L1210 cells, three days): 320 nM; IC50 (HCT-8 cells; [12]): 82 nM; MIC (Alcaligenes viscolactis [4]; [13]): < 0.46 µg/mL; MIC (Streptococcus pneumoniae; [13]): < 0.46 µg/mL; MIC (Escherichia coli; [13]): 4.1 µg/mL; MIC (Branhamella catarrhalis [5]; [13]): 4.1 µg/mL; MIC (Bacillus cereus; [13]): < 0.46 µg/mL
8 | COc1ccc2c(c1)-c1nn(CCCN(C)C)c3ccc([N+](=O)[O-])c(c13)N2 [Example 45, 9-Methoxy-N,N-dimethyl-5-nitropyrazolo[3,4,5-kl]acridine-2(6H)-propanamine,methanesulfonate] | – | – | – | – | – | – | – | – | 189% | 227% | 420 nM | < 0.46 µg/mL | < 0.46 µg/mL | 12.3 µg/mL | 1.4 µg/mL | 1.4 µg/mL | response vs control in vivo at 25 mg/kg [1, 16]: 261%; IC50 (HCT-8 cells; HCT-8, read-out: HCA ED50 Avg.): 140 nM
9 | CCN(CC)CCn1nc2c3c(c([N+](=O)[O-])cc([N+](=O)[O-])c31)Nc1ccc(OC)cc1-2 [Example 50, N,N-Diethyl-9-methoxy-3,5-dinitropyrazolo[3,4,5-kl]acridine-2(6H)-ethanamine, methanesulfonate (1:1), hydrate] | – | – | – | – | – | – | – | – | 160% | 166% | 400 nM | < 0.46 µg/mL | < 0.46 µg/mL | < 0.46 µg/mL | < 0.46 µg/mL | 4.1 µg/mL | response vs control in vivo at 25 mg/kg [1, 16]: 169%; response vs control in vivo at 50 mg/kg ([1]; read-out: P388 in vivo T/C × 100, 50 mg/kg, intraperitoneally once daily for five days): 226%; IC50 (HCT-8 cells; [17]): 66 nM
10 | COc1ccc2c(c1)-c1nn(CCN(C)C)c3c([N+](=O)[O-])cc([N+](=O)[O-])c(c13)N2 [Example 54, 9-Methoxy-N,N-dimethyl-3,5-dinitropyrazolo[3,4,5-kl]acridine-2(6H)-ethanamine, methanesulfonate (1:1), hydrate] | – | – | – | – | – | – | – | – | 169% | 236% | 220 nM | 0.46 µg/mL | 0.46 µg/mL | 0.46 µg/mL | 0.46 µg/mL | 0.46 µg/mL | response vs control in vivo at 1.56 mg/kg ([1]; read-out: P388 in vivo T/C × 100, 1.56 mg/kg, intraperitoneally once daily for five days): 132%; response vs control in vivo at 3.12 mg/kg ([1]; read-out: P388 in vivo T/C × 100, 3.12 mg/kg, intraperitoneally once daily for five days): 137%; IC50 (HCT-8 cells; [17]): 55 nM
